In patent US8999981B2, “3-amido-pyrrolo[3,4-C]pyrazole-5(1H, 4H,6H) carbaldehyde derivatives” (Pfizer Inc., priority 2007, dated 2015):
pKi: −log10 of the molar value.

Molecular target: Protein Kinase C beta 2 (PKCβII) (Homo sapiens (Human), UniProt P05771)
Test: PKCβII coupled PK/LDH spectrophotometric kinase assay
Format: biochemical
Conditions: apparent Ki, ATP-competitive model (Morrison equation); 0.1 mM ATP, 30° C.; read-out: PKCb Ki
Protocol: This transfer is coupled to the oxidation of β-NADH through the activities of Pyruvate Kinase (PK) and Lactate Dehydrogenase (LDH). β-NADH conversion to NAD+ is monitored by the decrease in absorbance at 340 nm (e=6.22 cm^−1 mM^−1) using a Molecular Devices SPECTRA max PLUS spectrophotometer.
A typical assay was carried out on a 96-well, clear microtiter plate in a Molecular Devices spectrophotometer for 20 minutes at 30° C. in 0.1 mL of assay buffer containing 50 mM HEPES, pH 7.4, 5 nM PKC, 23 units of pyruvate kinase, 33 units of lactate dehydrogenase, 0.15 mM peptide, 0.1 mM ATP, 1 mM DTT, 4 mM PEP, 8 mM MgCl2, 0.3 mM NADH, 60 mM CaCl2, 10 mg/mL PS, 50 ng/mL PMA, 7.5% DMSO and from about 10,000 nM to 0.169 nM compound inhibitor. Stock solutions of 3-sn-phosphatidyl-L-serine (PS) and phorbol-12-myristate-13-acetate (PMA) were sonicated for 30 seconds just prior to addition to assay buffer and assays were initiated by the addition of 100 μM ATP.
Enzyme turnover values (kcat) were calculated according to […], where [E] is the total enzyme concentration. Enzyme inhibition constants (apparent K values) were determined by fitting initial velocities at variable inhibitor concentrations to a model for ATP competitive inhibition based on the Morrison equation). Morrison, J. F., Biochim. Biophys Acta 185: 269-286 (1969).

Sequence of Protein Kinase C beta 2 (PKCβII) (P05771 other isoform, or with tags, fused parts or gaps): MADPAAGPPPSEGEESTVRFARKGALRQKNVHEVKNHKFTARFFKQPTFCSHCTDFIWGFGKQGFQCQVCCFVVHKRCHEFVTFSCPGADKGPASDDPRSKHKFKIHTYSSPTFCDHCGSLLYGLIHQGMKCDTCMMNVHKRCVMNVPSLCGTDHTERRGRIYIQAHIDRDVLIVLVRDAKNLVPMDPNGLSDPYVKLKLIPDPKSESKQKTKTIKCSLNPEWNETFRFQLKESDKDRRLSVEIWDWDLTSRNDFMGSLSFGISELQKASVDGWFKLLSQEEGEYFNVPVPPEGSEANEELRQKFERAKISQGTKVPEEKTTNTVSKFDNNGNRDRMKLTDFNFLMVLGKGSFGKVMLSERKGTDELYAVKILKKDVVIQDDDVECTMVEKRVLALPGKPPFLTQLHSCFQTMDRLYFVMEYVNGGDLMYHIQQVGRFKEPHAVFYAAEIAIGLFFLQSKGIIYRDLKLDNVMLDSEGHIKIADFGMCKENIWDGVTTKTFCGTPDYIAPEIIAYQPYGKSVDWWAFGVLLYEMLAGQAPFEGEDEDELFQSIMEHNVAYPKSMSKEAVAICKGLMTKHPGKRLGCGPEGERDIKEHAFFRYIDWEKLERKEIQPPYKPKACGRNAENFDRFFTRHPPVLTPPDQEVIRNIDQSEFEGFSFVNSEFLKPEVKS

Row | SMILES | pKi
1 | C[C@H]1CN2CCC[C@H]2CN1C(=O)N1Cc2c(NC(=O)c3ccccn3)n[nH]c2C1(C)C [Example A1, N-(6,6-Dimethyl-5-((3S,8aS)-3-methyl-octahydropyrrolo[1,2-a]pyrazine-2-carbonyl)-1,4,5,6-tetrahydropyrrolo[3,4-c]pyrazol-3-yl)picolinamide] | 7.53
2 | CC1(C)c2[nH]nc(NC(=O)c3cccc(Oc4ccccc4)c3)c2CN1C(=O)N1C[C@@H]2CCCN2C[C@@H]1Cc1ccccc1 [Example A3] | 7.43
3 | CN1CCN(C(=O)N2Cc3c(n[nH]c3NC(=O)c3cc4ccccc4s3)C2(C)C)[C@@H](Cc2ccccc2)C1 [Example A4] | 6.84
4 | CN1CCN(C(=O)N2Cc3c(NC(=O)c4cccs4)n[nH]c3C2(C)C)[C@@H](Cc2ccccc2)C1 [Example A6] | 6.73
5 | CN1CCN(C(=O)N2Cc3c(NC(=O)c4cc5ccccc5o4)n[nH]c3C2(C)C)[C@@H](Cc2ccccc2)C1 [Example A7] | 6.91
6 | CN1CCN(C(=O)N2Cc3c(NC(=O)c4ccc5ccccc5n4)n[nH]c3C2(C)C)[C@@H](Cc2ccccc2)C1 [Example A8] | 7.11
7 | CN1CCN(C(=O)N2Cc3c(NC(=O)c4cccc(Oc5ccccc5)c4)n[nH]c3C2(C)C)C(c2ccccc2)C1 (centres unmarked) [Example A9] | 6.80
8 | CC1(C)c2[nH]nc(NC(=O)c3cccc(Oc4ccccc4)c3)c2CN1C(=O)N1CCNCC1c1ccccc1 (centres unmarked) [Example A10] | 7.25
9 | CC1(C)c2[nH]nc(NC(=O)c3ccc4ccccc4n3)c2CN1C(=O)N1CCN2CCCC2C1 (centres unmarked) [Example A11] | 7.13
10 | CC(C)C[C@H]1CN2CCC[C@H]2CN1C(=O)N1Cc2c(NC(=O)c3ccc4ccccc4n3)n[nH]c2C1(C)C [Example A12] | 6.99
11 | CC1(C)c2[nH]nc(NC(=O)c3ccc4ccccc4n3)c2CN1C(=O)N1C[C@@H]2CCCN2C[C@@H]1Cc1ccccc1 [Example A13] | 7.56
12 | CC1(C)c2[nH]nc(NC(=O)c3ccc4ccccc4n3)c2CN1C(=O)N1C[C@@H]2CCCN2C[C@@H]1Cc1ccccc1 [Example A14] | 7.79
13 | CC1(C)c2[nH]nc(NC(=O)c3cccs3)c2CN1C(=O)N1CCN2CCCC2C1 (centres unmarked) [Example A15] | 6.87
14 | CC1(C)c2[nH]nc(NC(=O)c3ccccc3)c2CN1C(=O)N1CCN2CCCC2C1 (centres unmarked) [Example A16] | 6.95
15 | COc1cccc(C(=O)Nc2n[nH]c3c2CN(C(=O)N2C[C@@H]4CCCN4C[C@@H]2Cc2ccccc2)C3(C)C)c1 [Example A17] | 7.79
16 | COc1ccc(C(=O)Nc2n[nH]c3c2CN(C(=O)N2C[C@@H]4CCCN4C[C@@H]2Cc2ccccc2)C3(C)C)cc1 [Example A18] | 7.52
17 | CC1(C)c2[nH]nc(NC(=O)c3ccccc3Cl)c2CN1C(=O)N1C[C@@H]2CCCN2C[C@@H]1Cc1ccccc1 [Example A19] | 7.04
18 | CC1(C)c2[nH]nc(NC(=O)c3cccc(F)c3F)c2CN1C(=O)N1C[C@@H]2CCCN2C[C@@H]1Cc1ccccc1 [Example A20] | 7.29
19 | CC1(C)c2[nH]nc(NC(=O)c3cccc(Cl)c3)c2CN1C(=O)N1CCN2CCCC2C1 (centres unmarked) [Example A22] | 7.54
20 | CC1(C)c2[nH]nc(NC(=O)c3cccc(Cl)n3)c2CN1C(=O)N1CCN2CCCC2C1 (centres unmarked) [Example A23] | 7.25
21 | CC1(C)c2[nH]nc(NC(=O)c3cccc(Cl)n3)c2CN1C(=O)N1CCN2CCCC2C1 (centres unmarked) [Example A24] | 7.37
22 | CC1(C)c2[nH]nc(NC(=O)c3ccc4ccncc4n3)c2CN1C(=O)N1C[C@@H]2CCCN2C[C@@H]1Cc1ccccc1 [Example A25] | 7.54
23 | Cn1ccnc1C(=O)Nc1n[nH]c2c1CN(C(=O)N1C[C@@H]3CCCN3C[C@@H]1Cc1ccccc1)C2(C)C [Example A26] | 7.16
24 | C[C@H]1CN2CCC[C@H]2CN1C(=O)N1Cc2c(NC(=O)c3ccccc3)n[nH]c2C1(C)C [Example A27] | 7.45
25 | CCC[C@H]1CN2CCC[C@H]2CN1C(=O)N1Cc2c(NC(=O)c3ccccc3)n[nH]c2C1(C)C [Example A28] | 7.02
26 | C[C@@H]1CN(C(=O)N2Cc3c(NC(=O)c4ccccn4)n[nH]c3C2(C)C)C[C@H](C)N1 [Example A29] | 7.11
